# Experimental data from US20130281298A1 (priority 2012, published 2013).
# System: citrus greening (HLB)
# Format: in vivo, orange tree
smiles,measurement,setting,value
OC[C@H]1O[C@H](O[C@H]2O[C@H](CO)[C@@H](O)[C@H](O)[C@H]2O)[C@H](O)[C@@H](O)[C@@H]1O [trehalose],new leaf formation on apparently dead branches,"as late as four months after treatment, tree seriously afflicted with citrus greening",new leaves that are formed even on apparently dead branches
same,condition of tree after foliar treatment,"four months after one foliar treatment to the canopy of leaves, 1 gram trehalose per 1 gallon of water, 100 gallons/acre",nearly complete renewal of the tree
same,development of flowers,three months after single foliar treatment,prolific development of flowers
